One experiment addresses T1, rA1 adenosine receptor (Rattus norvegicus, UniProt P25099).
T1 construct: membranes of rat brain (150-200 μg- of protein/assay); from tissue; host or cells: whole brain of male Wistar rats
T1 sequence (P25099 1-326): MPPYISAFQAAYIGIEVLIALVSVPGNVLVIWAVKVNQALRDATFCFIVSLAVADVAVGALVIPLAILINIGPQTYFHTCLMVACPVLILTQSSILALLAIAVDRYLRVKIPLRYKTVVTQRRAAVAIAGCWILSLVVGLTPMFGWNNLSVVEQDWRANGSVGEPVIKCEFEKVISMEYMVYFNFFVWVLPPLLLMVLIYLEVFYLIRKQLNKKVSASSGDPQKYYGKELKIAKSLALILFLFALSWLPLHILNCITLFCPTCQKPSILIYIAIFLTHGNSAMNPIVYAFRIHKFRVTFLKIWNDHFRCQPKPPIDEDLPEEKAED
Description: Rat A1 adenosine receptor binding assay, [3H]CHA displacement, rat brain membranes.

For the next experiment, the target named is T2, rA2A adenosine receptor (Rattus norvegicus, UniProt P30543).
T2 construct: membranes of rat striatum (80-100 μmg of protein/assay); from tissue; host or cells: striatum of male Wistar rats
The experiment in a line: Rat A2A adenosine receptor binding assay, [3H]SCH58261 displacement, rat striatum membranes. As to conditions: rat striatum membranes, [3H]SCH58261; read-out: rA2A (Ki).

Experiment [1] addresses T3, human recombinant A3 adenosine receptor (Homo sapiens, UniProt P0DMS8).
T3 sequence (P0DMS8 1-318): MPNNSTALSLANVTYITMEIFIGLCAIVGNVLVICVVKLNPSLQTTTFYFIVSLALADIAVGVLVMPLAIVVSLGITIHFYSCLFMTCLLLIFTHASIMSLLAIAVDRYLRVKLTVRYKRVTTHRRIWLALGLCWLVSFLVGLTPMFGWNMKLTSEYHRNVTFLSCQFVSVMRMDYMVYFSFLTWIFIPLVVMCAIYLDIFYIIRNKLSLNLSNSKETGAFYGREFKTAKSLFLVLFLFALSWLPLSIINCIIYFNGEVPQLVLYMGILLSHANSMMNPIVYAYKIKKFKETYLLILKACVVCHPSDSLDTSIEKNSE
The experiment in a line: Human cloned A3 adenosine receptor binding assay, [125I]AB-MECA, HEK-293 membranes. Also noted: USA; host or cells: HEK-293. As to conditions: for Ki: HEK-293 membranes, [125I]AB-MECA, read-out: hA3 (Ki); for rA1/hA3 / rA2A/hA3: selectivity ratio of Ki values.

SMILES strings stand for the structures.

T2 sequence (P30543 whole entry): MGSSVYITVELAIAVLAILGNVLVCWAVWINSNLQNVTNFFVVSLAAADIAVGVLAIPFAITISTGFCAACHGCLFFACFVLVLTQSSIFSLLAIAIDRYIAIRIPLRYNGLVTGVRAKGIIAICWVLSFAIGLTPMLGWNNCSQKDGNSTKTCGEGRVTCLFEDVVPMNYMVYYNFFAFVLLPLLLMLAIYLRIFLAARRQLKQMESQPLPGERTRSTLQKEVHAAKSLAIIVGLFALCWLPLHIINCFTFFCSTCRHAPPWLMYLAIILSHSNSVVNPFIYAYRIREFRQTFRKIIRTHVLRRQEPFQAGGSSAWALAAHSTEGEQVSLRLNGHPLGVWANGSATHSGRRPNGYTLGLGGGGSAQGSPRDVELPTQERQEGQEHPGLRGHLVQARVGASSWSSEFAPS
Description for rA1 adenosine receptor: (§1) Male Wistar rats (200-250 g) were decapitated and the whole brain and striatum dissected on ice. […] The homogenate was centrifuged at 48,000 for 10 min, and the pellet was resuspended in the same buffer containing 2 IU/mL adenosine deaminase. After 30 min incubation at 37° C., the membranes were centrifuged and pellets were stored at −80° C. Prior to freezing, an aliquot of homogenate was removed for protein assay with bovine albumin as reference standard. Binding assays were performed on rat brain and striatum membranes respectively, in the presence of 10 mM MgCl2 at 25° C.
(§2) Separation of bound from free radio ligand was performed by rapid filtration through Whatman GF/B filters which were washed three times with ice-cold buffer. Filter bound radioactivity was measured by scintillation spectrometry after addition of 5 mL of Aquassure. […] Ki values were calculated from the Cheng-Prusoff equation. All binding data were analyzed using the nonlinear regression curve-fitting computer program LIGAND.
Description for rA2A adenosine receptor: as §1, §2

`O=C(Nc1cccc(Cl)c1)Nc1nc2nn(CCc3ccccc3)cc2c2nc(-c3ccco3)nn12` [Compound 54, 5-[[(3-Chlorophenyl)amino]carbonyl]amino-8-(2-(phenyl)ethyl)-2-(2-furyl)-pyrazolo[4,3-e]1,2,4-triazolo[1,5-c]pyrimidine] registered an inhibitory constant (Ki) at rA1 adenosine receptor of 1.05 µM. Also, the Ki on rA2A adenosine receptor is 1.7 µM. In experiment [1], the inhibition constant Ki was 0.0133 µM, the rA1/hA3 stood at 79 and the rA2A/hA3 worked out at 128.
For `COc1ccc(NC(=O)Nc2nc3nn(CCc4ccccc4)cc3c3nc(-c4ccco4)nn23)cc1` [Compound 55, 5-[[(4-Methoxyphenyl)amino]carbonyl]amino-8-(2-(phenyl)ethyl)-2-(2-furyl)-pyrazolo[4,3-e]1,2,4-triazolo[1,5-c]pyrimidine], in that order: 1.28 µM, 1.4 µM, 0.00147 µM, 872 and 951.
For `O=C(Nc1cccc(Cl)c1)Nc1nc2nn(CCCc3ccccc3)cc2c2nc(-c3ccco3)nn12` [Compound 56, 5-[[(3-Chlorophenyl)amino]carbonyl]amino-8-(3-(phenyl)propyl)-2-(2-furyl)-pyrazolo[4,3-e]1,2,4-triazolo[1,5-c]pyrimidine], in that order: more than 10 µM, 3.2 µM, 0.0427 µM, more than 234 and 75.
In the case of `COc1ccc(NC(=O)Nc2nc3nn(CCCc4ccccc4)cc3c3nc(-c4ccco4)nn23)cc1` [Compound 57, 5-[[(4-Methoxyphenyl)amino]carbonyl]amino-8-(3(phenyl)propyl)-2-(2-furyl)-pyrazolo[4,3-e]1,2,4-triazolo[1,5-c]pyrimidine], the Ki on rA1 adenosine receptor was determined as 1.51 µM. Moreover, the inhibitory constant (Ki) at rA2A adenosine receptor was more than 10 µM. Moreover, in experiment [1], the inhibition constant (Ki) is 0.0198 µM, the rA1/hA3 amounted to 76.4 and the rA2A/hA3 is reported as more than 504.
`O=C(Cc1ccccc1)Nc1nc2nn(CCCc3ccccc3)cc2c2nc(-c3ccco3)nn12` [Compound 59, 5-[(Benzyl)carbonyl]amino-8-(3-(phenyl)propyl)-2-(2-furyl)-pyrazolo[4,3-e]1,2,4-triazolo[1,5-c]pyrimidine]: the inhibitory constant (Ki) at rA1 adenosine receptor came out at 0.345 µM. On rA2A adenosine receptor, the inhibition constant (Ki) stood at 0.4 µM. Moreover, in experiment [1], the Ki came out at 0.121 µM, the rA1/hA3 amounted to 2.8 and the rA2A/hA3 is 3.3.

For orientation: Ki means the equilibrium dissociation constant of an inhibitor or competing ligand from its target.

The record behind these values is US7271171B2, “Adenosine A3 receptor modulators” (King Pharmaceuticals Research and Development, Inc., priority 1998, dated 2007).
